Source: publication PMC8617627, “Novel DYRK1A Inhibitor Rescues Learning and Memory Deficits in a Mouse Model of Down Syndrome” (Pharmaceuticals, 2021)
Like-named read-outs stand apart in the source and are kept apart here.

Key:
Experiment in all cases: Kinase profile (33P ATP filter binding)
Format in all cases: biochemical
[1] = molecular target: T1, EPH-B4 (Homo sapiens, UniProt P54760); conditions: read-out: Remaining protein kinase activity
T1 sequence (P54760 16-987): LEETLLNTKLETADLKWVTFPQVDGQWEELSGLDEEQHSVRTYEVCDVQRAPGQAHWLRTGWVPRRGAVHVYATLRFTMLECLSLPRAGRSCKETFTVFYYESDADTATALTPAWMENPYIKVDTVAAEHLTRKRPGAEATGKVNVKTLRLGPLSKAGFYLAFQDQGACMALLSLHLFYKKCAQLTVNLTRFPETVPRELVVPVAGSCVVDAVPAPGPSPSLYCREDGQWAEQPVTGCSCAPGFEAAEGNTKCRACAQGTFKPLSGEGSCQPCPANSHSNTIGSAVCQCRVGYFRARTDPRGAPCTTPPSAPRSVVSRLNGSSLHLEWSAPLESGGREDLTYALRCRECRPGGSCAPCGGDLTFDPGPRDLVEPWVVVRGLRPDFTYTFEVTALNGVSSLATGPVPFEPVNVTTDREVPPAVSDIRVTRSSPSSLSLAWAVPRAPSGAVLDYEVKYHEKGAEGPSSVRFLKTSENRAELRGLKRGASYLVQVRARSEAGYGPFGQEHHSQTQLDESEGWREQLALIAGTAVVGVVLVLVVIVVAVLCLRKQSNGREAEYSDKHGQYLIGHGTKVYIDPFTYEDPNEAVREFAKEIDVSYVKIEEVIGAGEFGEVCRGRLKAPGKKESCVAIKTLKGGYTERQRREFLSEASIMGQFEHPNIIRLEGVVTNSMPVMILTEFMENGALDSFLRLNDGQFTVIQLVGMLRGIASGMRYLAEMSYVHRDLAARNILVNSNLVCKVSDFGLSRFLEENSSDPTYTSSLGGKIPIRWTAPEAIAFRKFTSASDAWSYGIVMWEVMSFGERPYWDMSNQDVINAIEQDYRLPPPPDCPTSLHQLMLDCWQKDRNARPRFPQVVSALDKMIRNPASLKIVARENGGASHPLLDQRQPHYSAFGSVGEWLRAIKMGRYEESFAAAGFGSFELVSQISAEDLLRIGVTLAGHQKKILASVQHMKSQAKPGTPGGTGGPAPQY

[2] = molecular target: T2, PINK (Tribolium castaneum, UniProt D6WMX4); conditions: read-out: Remaining protein kinase activity
T2 sequence (D6WMX4 1-570): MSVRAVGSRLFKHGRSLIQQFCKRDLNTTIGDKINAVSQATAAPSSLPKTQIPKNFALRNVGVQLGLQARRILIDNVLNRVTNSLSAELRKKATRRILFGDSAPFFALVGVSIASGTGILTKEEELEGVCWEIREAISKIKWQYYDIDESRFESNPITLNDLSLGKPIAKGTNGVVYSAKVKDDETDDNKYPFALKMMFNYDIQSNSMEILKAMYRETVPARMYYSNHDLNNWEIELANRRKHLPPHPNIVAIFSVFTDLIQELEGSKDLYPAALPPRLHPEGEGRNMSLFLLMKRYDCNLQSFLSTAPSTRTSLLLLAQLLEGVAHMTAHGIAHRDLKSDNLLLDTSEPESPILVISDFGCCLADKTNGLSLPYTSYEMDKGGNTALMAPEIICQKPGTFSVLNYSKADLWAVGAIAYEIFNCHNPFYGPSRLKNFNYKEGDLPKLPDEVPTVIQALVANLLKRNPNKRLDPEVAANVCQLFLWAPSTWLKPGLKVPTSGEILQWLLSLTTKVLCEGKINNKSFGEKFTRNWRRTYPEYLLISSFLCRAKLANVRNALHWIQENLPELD

[3] = molecular target: S6K1 (Homo sapiens, UniProt P23443); conditions: read-out: Remaining protein kinase activity
[4] = molecular target: CK2 (Homo sapiens, UniProt P68400); conditions: read-out: Remaining protein kinase activity
[5] = molecular target: AMPK (hum) (Homo sapiens, UniProt Q13131); conditions: read-out: Remaining protein kinase activity
[6] = molecular target: MLK1 (Homo sapiens, UniProt P80192); conditions: read-out: Remaining protein kinase activity
[7] = molecular target: MLK3 (Homo sapiens, UniProt Q16584)
MLK3, sequence (Q16584 whole entry): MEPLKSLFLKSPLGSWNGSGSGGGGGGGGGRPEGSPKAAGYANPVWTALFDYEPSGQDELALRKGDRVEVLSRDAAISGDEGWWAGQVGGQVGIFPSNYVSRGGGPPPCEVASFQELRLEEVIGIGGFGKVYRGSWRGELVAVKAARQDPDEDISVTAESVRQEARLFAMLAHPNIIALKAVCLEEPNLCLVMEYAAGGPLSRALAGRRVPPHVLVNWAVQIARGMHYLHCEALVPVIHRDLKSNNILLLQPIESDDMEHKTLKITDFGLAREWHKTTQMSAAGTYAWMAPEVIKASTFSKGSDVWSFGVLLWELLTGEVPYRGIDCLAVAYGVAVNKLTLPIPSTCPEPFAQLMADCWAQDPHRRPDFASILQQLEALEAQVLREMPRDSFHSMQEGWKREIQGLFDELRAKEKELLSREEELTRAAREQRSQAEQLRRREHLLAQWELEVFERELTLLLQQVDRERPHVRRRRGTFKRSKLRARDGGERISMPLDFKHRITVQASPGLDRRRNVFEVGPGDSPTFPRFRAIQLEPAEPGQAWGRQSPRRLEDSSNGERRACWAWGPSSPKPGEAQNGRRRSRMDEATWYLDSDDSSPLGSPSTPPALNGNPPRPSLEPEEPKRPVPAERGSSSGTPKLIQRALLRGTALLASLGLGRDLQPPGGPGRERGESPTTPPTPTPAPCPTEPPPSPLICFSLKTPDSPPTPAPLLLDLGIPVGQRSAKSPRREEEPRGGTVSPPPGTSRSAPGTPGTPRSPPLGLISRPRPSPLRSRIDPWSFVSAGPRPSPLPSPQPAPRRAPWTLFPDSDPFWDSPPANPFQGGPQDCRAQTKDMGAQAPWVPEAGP

AMPK (hum), sequence (Q13131 whole entry): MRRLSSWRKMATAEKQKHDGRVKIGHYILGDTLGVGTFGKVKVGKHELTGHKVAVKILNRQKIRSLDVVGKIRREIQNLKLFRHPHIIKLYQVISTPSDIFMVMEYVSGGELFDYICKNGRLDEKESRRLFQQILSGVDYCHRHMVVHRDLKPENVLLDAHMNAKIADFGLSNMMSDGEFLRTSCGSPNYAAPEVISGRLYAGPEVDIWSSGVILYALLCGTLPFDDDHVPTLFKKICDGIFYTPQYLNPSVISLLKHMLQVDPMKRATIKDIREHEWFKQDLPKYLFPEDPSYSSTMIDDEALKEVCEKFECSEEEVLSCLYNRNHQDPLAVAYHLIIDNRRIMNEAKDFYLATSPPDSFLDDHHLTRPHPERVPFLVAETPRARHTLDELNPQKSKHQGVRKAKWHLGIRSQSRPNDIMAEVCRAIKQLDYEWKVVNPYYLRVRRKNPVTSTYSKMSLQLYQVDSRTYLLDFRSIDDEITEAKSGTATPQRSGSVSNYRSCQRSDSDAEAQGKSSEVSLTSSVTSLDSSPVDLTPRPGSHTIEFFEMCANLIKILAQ
AMPK (hum), sequence (O43741 whole entry partner): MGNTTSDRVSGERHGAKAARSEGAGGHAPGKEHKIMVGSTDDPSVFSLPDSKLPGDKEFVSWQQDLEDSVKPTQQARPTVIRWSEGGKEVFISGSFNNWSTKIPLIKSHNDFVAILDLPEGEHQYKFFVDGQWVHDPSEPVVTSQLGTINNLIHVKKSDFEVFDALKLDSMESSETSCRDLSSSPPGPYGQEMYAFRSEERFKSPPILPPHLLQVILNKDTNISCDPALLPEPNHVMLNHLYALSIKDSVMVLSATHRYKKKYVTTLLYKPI
AMPK (hum), sequence (P54619 whole entry partner): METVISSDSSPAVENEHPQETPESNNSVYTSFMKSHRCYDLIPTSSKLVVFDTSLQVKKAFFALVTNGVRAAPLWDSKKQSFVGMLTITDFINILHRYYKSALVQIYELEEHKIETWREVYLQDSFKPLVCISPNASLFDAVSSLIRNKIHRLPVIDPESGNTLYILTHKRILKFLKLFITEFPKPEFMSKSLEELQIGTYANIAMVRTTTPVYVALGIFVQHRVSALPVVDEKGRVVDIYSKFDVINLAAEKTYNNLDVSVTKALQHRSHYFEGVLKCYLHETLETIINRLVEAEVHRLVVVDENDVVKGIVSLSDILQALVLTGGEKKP
MLK1, sequence (P80192 whole entry): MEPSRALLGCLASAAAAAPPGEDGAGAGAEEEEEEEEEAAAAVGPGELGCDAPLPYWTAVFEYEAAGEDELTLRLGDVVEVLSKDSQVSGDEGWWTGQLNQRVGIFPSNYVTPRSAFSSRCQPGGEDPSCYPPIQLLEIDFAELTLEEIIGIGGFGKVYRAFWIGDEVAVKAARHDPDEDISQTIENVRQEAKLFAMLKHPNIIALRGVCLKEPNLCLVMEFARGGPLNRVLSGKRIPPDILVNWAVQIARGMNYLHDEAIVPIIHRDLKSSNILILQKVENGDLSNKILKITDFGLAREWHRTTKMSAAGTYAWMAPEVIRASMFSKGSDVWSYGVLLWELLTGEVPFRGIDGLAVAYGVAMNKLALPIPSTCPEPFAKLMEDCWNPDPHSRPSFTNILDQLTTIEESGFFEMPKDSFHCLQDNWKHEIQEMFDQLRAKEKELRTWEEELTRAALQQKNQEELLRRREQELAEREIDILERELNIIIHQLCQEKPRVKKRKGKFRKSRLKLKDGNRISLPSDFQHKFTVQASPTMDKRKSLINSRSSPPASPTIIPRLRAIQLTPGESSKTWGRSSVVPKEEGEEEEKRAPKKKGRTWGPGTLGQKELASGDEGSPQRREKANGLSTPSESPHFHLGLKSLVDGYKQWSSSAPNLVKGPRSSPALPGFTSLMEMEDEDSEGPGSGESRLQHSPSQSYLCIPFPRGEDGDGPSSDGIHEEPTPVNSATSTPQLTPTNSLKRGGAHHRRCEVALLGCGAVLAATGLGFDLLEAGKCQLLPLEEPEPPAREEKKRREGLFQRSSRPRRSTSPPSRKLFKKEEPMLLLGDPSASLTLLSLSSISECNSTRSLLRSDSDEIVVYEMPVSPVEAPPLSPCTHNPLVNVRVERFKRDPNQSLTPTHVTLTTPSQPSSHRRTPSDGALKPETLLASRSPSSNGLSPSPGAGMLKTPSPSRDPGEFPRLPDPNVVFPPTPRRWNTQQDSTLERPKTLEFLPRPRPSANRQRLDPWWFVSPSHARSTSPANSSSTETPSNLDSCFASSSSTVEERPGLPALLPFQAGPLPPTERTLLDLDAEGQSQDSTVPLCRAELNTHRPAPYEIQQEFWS
CK2, sequence (P68400 whole entry): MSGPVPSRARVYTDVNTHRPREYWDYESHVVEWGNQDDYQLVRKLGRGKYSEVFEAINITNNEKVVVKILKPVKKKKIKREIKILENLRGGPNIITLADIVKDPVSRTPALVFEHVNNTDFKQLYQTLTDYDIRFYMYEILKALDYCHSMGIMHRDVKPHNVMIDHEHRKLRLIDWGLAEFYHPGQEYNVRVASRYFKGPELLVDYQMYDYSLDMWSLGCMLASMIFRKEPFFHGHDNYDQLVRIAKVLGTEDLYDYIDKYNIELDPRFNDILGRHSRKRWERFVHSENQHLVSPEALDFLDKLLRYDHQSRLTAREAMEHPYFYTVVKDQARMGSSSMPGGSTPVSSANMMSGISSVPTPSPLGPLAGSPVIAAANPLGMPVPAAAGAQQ
S6K1, sequence (P23443 whole entry, species assumed): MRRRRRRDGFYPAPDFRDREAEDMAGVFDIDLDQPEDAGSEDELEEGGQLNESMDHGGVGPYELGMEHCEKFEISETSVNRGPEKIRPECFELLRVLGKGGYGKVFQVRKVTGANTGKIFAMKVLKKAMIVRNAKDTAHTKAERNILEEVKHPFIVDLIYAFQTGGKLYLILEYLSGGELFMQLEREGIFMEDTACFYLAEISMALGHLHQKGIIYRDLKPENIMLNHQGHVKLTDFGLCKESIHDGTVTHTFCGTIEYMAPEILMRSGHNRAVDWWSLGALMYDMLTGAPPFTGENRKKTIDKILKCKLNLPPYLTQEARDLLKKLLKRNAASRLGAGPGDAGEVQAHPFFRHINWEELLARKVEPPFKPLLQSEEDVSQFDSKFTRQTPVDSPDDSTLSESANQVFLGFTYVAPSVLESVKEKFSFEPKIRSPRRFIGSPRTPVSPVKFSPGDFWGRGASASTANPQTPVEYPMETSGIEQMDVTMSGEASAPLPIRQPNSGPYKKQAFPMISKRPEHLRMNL

Question: Which remaining activity at 100 µM [1] does the source give for `COc1ccc2sc(-c3cncc(NC(C)=O)c3)nc2c1` [PST-001, N-(5-(5-Methoxybenzo[d]thiazol-2-yl)pyridin-3-yl)acetamide] here?
Answer: Its remaining activity at 100 µM is 130%.

Question: And the remaining activity at 1 µM [2]?
Answer: The remaining activity at 1 µM was 119%.

Question: What about the remaining activity at 100 µM [2] of the same compound?
Answer: Its remaining activity at 100 µM is 118%.

Question: And the remaining activity at 1 µM [3]?
Answer: Its remaining activity at 1 µM is 113%.

Question: And the remaining activity at 100 µM [3]?
Answer: The remaining activity at 100 µM was 81%.

Question: What about the remaining activity at 100 µM ([4]; CK2) of the same compound?
Answer: Its remaining activity at 100 µM is 95%.

Question: What about the remaining activity at 1 µM [4] of the same compound?
Answer: The remaining activity at 1 µM was 102%.

Question: And the remaining activity at 1 µM [5]?
Answer: Its remaining activity at 1 µM is 99%.

Question: And the remaining activity at 100 µM [5]?
Answer: Its remaining activity at 100 µM is 69%.

Question: What about the remaining activity at 1 µM [6] of the same compound?
Answer: Its remaining activity at 1 µM is 108%.

Question: And the remaining activity at 100 µM [6]?
Answer: Its remaining activity at 100 µM is 96%.

Question: And the “Remaining protein kinase activity” value ([7]; 1 μM)?
Answer: The value was 109%.

Question: What about the “Remaining protein kinase activity” value ([7]; 100 μM) of the same compound?
Answer: Its value is 60%.

Question: How did the remaining activity at 1 µM ([1]; EPH-B4, 1 μM) turn out when `COc1ccc2sc(-c3cncc(N)c3)nc2c1` [compound 1, 5-(5-Methoxybenzo[d]thiazol-2-yl)pyridin-3-amine] was run?
Answer: Its remaining activity at 1 µM is 112%.

Question: And the remaining activity at 100 µM ([1]; EPH-B4, 100 μM)?
Answer: The remaining activity at 100 µM was 97%.

Question: And the remaining activity at 1 µM [2]?
Answer: The remaining activity at 1 µM was 121%.

Question: And the remaining activity at 100 µM [2]?
Answer: The remaining activity at 100 µM was 114%.

Question: What about the remaining activity at 1 µM ([3]; S6K1, 1 μM) of the same compound?
Answer: Its remaining activity at 1 µM is 118%.

Question: What about the remaining activity at 100 µM ([3]; S6K1, 100 μM) of the same compound?
Answer: The remaining activity at 100 µM was 58%.

Question: What about the remaining activity at 1 µM ([4]; CK2, 1 μM) of the same compound?
Answer: The remaining activity at 1 µM was 103%.

Question: And the remaining activity at 100 µM ([4]; CK2)?
Answer: The remaining activity at 100 µM was 21%.

Question: What about the remaining activity at 1 µM ([5]; AMPK (hum), 1 μM) of the same compound?
Answer: The remaining activity at 1 µM was 107%.

Question: And the remaining activity at 100 µM ([5]; AMPK (hum), 100 μM)?
Answer: The remaining activity at 100 µM was 46%.

Question: And the remaining activity at 1 µM ([6]; MLK1, 1 μM)?
Answer: The remaining activity at 1 µM was 106%.

Question: And the remaining activity at 100 µM ([6]; MLK1, 100 μM)?
Answer: The remaining activity at 100 µM was 16%.

Question: What about the “Remaining protein kinase activity” value ([7]; 1 μM) of the same compound?
Answer: The value was 101%.

Question: What about the “Remaining protein kinase activity” value ([7]; 100 μM) of the same compound?
Answer: The value was 29%.
